Data taken from patent US20250064801A1, “USE OF 5-AMINO-2,3-DIHYDRO-1,4-PHTHALAZINEDIONE IN THE TREATMENT OF CONGENITAL MUSCULAR DYSTROPHIES” (METROPHARM AG, priority 2022, published 2025).

Key:
[1] = tested on: musculus extensor digitorum longus (EDL) muscle in the mdx mouse; assay: Contractile properties (maximum force) of the musculus extensor digitorum longus measured in vitro at end of treatment of mdx mice; assay type: in vivo
Text: The mdx mouse model is the most widely used and investigated animal model in the research of Duchenne muscular dystrophy since the early 1980ies. These mice are characterized by muscle weakness, histological evidence of myopathy and elevated serum levels of creatin kinase (CK) (cf. Bulfield et al. (1984) PNAS 81: 1189-1192). Herein, CK levels are a marker of the breakdown of CK-rich tissues such as skeletal muscles (rhabdomyolysis). The mutation in the mdx mouse is a nonsense mutation (C-to-T transition) in exon 23 that aborts full-length dystrophin expression (cf. Sicinski et al. (1989) Science 244: 1578-1580). Symptoms are moderate and the mean lifespan is reduced by about 25%. During the first two weeks after birth mdx mice are indistinguishable from wild-type mice. Then skeletal muscle necrosis starts until week 6 after birth and thereupon enters in a plateau phase characterized by muscle hypertrophy. […] Many aged mdx mice develop spontaneous sarcoma.
Mice were identified by ear tags. […] These cages were assigned randomly to treatment groups. Animals were monitored daily for changes in behavior.
The experiments were carried out by AGADA Biosciences (Halifax, Canada) on behalf of the applicant. All treatment substances were provided by the applicant. All treatment groups started with 15 mice. Treatment was blinded.
Contractile properties were measured in vitro on the right musculus extensor digitorum longus (EDL) at the end of the study. The mice were anesthetized using ketamine and xylamine. The EDL muscle of the right hindlimb was removed from each mouse and immersed in individual carbogenated baths (95% O2, 5% CO2) containing Ringer's solution (pH 7.4) at 25° C. The muscle was flanked by two electrodes. Using non-fatiguing twitches, the muscle was maintained at 10 mN for force generation. The maximal force was measured with the muscle held at 10 mN. The muscle was stimulated with an electrode to elicit tetanic contractions that are separated by 2-minute rest intervals. […] This plateau was considered the maximum force (mN) generated by the muscle. The cross-sectional area of the muscle was measured based on muscle mass, muscle length, and tissue density. Finally, the muscle specific force (kN/m^2) was calculated based on the cross-sectional area of the muscle and was converted in relation to the individual body weight ([…]).

[2] = Body weight of mdx mice measured weekly over the treatment period; details: 1.0 mg/kg (prednisolone oral syrup, deflazacort IP)
Protocol: Animals were received in 2 cohorts (n=49-56; 7-8 per group). Mice were sorted into a total of five treatment groups. The mice of the control groups were wild type C57BL/10ScSnJ and the dmx strain C57BL/10ScSn-Dmdmdx/J. The animals were acclimatized upon arrival to the animal facility for 7 days, housed in cages with up to 5 mice per cage. During the study, 12-hour light/11-hour dark cycles were maintained. Room temperature was maintained between 20° C. and 23° C. Food and water were available ad libitum for the duration of the study. Mice were identified by ear tags. Randomization was done based on the average body weight of the cage. These cages were assigned randomly to treatment groups. Animals were monitored daily for changes in behavior. […]
All treatment compounds were administered via intraperitoneal (IP) injection, with exception of prednisolone that was delivered via oral syrup. […] Once the injection was delivered, the mouse was monitored for a couple of minutes for any adverse side effects. […] Once the complete treatment was delivered the mouse was placed back into its cage and monitored for a couple of minutes for any adverse side effects.
The body weight was measured weekly starting after acclimation of the animals to the facility and the beginning of the treatment (5 weeks of age). […]

[3] = mdx mice, 1.0 mg/kg (prednisolone oral syrup, deflazacort IP)
[4] = mdx mice, 1.0 mg/kg (prednisolone oral syrup, deflazacort IP), right EDL in Ringer's solution 25° C., mean ±SEM

SMILES | percentual improvement of maximum force in comparison to the untreated mdx mice control group (set as 100%) [1, 3] [%] | maximum force generated by the muscle (EDL), related to body weight [1, 4] [mN/kg] | difference in body weight (diminished increase) ([2]; from about week 6) | body weight increase over the treatment ([2]; weeks of age 5-10, starting at about week 6) | dose dependence of the maximum force generated by the muscle ([1]; mouse, in vivo) | maximum force generated by the muscle (EDL), related to body weight ([1]; mouse, in vivo, ip, 5 mg/kg) [mN/kg] | percentual improvement of maximum force in comparison to the untreated mdx mice control group (set as 100%) ([1]; mouse, in vivo, ip, 5 mg/kg) [%]
CC(=O)OCC(=O)[C@@]12N=C(C)O[C@@H]1C[C@H]1[C@@H]3CCC4=CC(=O)C=C[C@]4(C)[C@H]3[C@@H](O)C[C@@]12C [deflazacort] | 6.2 | 96.8±5.2 | – | – | – | – | –
C[C@]12C=CC(=O)C=C1CC[C@@H]1[C@@H]2[C@@H](O)C[C@@]2(C)[C@H]1CC[C@]2(O)C(=O)CO [prednisolone] | 18.0 | 107.5±7.2 | about 7% | significantly diminished body weight increase | – | – | –
Nc1cccc2c(=O)[nH][nH]c(=O)c12.[Na] [5-amino-2,3-dihydro-1,4-phthalazinedione sodium salt] | – | – | – | – | dose-dependent improvement | 106.1±8.0 | 16.4
